Data reported in US20040058993A1, “Inhibitor for the production of TNF alpha” (AJINOMOTO CO. INC., priority 2000, published 2004).

How the values were obtained:
male rat of SD strain = assay: D-galactosamine-induced necrosis of hepatocytes in rat, plasma AST and ALT; type: in vivo; details: AMS 1.0 g/kg oral in 0.3% CMC 1 hour before D-galactosamine 600 mg/kg i.p., plasma after 24 hours, p<0.05
Experimental: Action of Aminomethanesulfonic Acid (AMS) to Necrosis of Hepatocytes (Method of Experiment)
A male rat of SD strain of 6 weeks age (150 g) was introduced, subjected to a preliminary breeding by giving CRF-1 (a feed manufactured by Oriental Yeast) and water for six days, fasted for one night and used for the experiment. During the fasting, a 10% aqueous solution of glucose was freely taken by the rat for preventing the lowering of blood-sugar level. D-galactosamine (600 mg/kg) adjusted to pH 6.8 was intraperitoneally administered using a 30% physiological saline solution. After 24 hours from administration of D-galactosamine, 700 μl of blood were collected from subclavian vein under anesthetization with ether and AST (aspartate aminotransferase) and ALT (alanine aminotransferase) in plasma were measured by a Fuji Dry Chem (an automated biochemical measuring apparatus for blood manufactured by Fuji Photo-Film). One hour before the administration of D-galactosamine, AMS was orally administered as a drug to be tested using a 0.3% aqueous solution of carboxymethyl cellulose (CMC).
Group 2: AMS (1.0 g/kg)/0.3% CMC n=8.

[1] = system: TNFα production in Kupffer cells; assay: LPS-induced TNFα production in rat Kupffer cells (ELISA); type: cell-based; details: LPS 10 μg/ml, AMS 0.1 to 3 mM (glycine 0.3 to 30 mM), supernatant after 4 hours, FIG. 1
Experimental: A male rat of SD strain (body weight: 200-300 g) was subjected to laparotomy under anesthetization with Nembutal, a collagenase solution was perfused from portal vein, then the liver was excised and Kupffer cells were separated by an elutriator method. The Kupffer cells were adjusted to 5×10^5 cells/ml, each 100μ/well thereof were spread on a 96-well microplate and incubation was carried out for 48 hours using E-MEM (Eagle-MEM) and 10% FCS (fetal calf serum) to conduct the experiment. LPS (lipopoly saccharide) (10 μg/ml) and aminomethanesulofonic acid (AMS) or glycine were added at the same time thereto so as to make their concentrations 0.1 to 3 mM or 0.3 to 30 mM, respectively and the amount of TNFα produced in a supernatant liquid after incubation for 4 hours was measured by an ELISA (enzyme-linked immunosorbent assay).

For `NCS(=O)(=O)O` [aminomethanesulfonic acid], the “rise in ALT in the plasma” value (male rat of SD strain; FIG. 2) was “significantly inhibited”, the “rise in AST in the plasma” value (male rat of SD strain; FIG. 3) was “significantly inhibited” and the “inhibition of the production of TNFα” value [1] was “inhibited the production of TNFα in a considerably strong manner as compared with glycine”.
